Laboratory results reported in the NIST ThermoML archive (doi:10.1016/j.fluid.2012.05.002).

Assay: osmotic coefficient (dimensionless); mn = molality of the nth substance listed, in mol/kg
Conditions: 298.1 K, 20 kPa, Liquid, isopiestic method

O=C(O)C(O)C(O)C(=O)O (centres undefined) [2,3-dihydroxybutanedioic acid] + O
Conditions | osmotic coefficient
m1 = 0.3554 | 0.461
m1 = 0.51 | 0.382
m1 = 0.698 | 0.313
m1 = 1.074 | 0.286
m1 = 1.268 | 0.285
m1 = 1.739 | 0.283
m1 = 2.361 | 0.292
m1 = 2.404 | 0.292
m1 = 3.449 | 0.322
m1 = 4.311 | 0.351
m1 = 5.203 | 0.379
m1 = 6.517 | 0.416
m1 = 7.737 | 0.437

CC(=O)O [acetic acid] + O
Conditions | osmotic coefficient
m1 = 0.3254 | 1.034
m1 = 0.4489 | 1.014
m1 = 0.6191 | 0.991
m1 = 0.7688 | 0.9736
m1 = 1.029 | 0.9465
m1 = 1.262 | 0.925
m1 = 1.638 | 0.8942
m1 = 2.236 | 0.852
m1 = 2.588 | 0.8295
m1 = 3.693 | 0.768
m1 = 4.687 | 0.72
m1 = 6.292 | 0.652
m1 = 9.635 | 0.535
m1 = 14.92 | 0.375

CCCC(=O)O [butanoic acid] + O
Conditions | osmotic coefficient
m1 = 0.2966 | 1.051
m1 = 0.3972 | 1.03
m1 = 0.7027 | 0.9809
m1 = 0.9898 | 0.9364
m1 = 1.539 | 0.8612
m1 = 2.501 | 0.755
m1 = 2.652 | 0.74
m1 = 4.544 | 0.598
m1 = 5.353 | 0.553
m1 = 6.364 | 0.506
m1 = 7.777 | 0.454
m1 = 9.598 | 0.402
m1 = 12 | 0.351
m1 = 15.29 | 0.302
m1 = 17.6 | 0.278

O=C(O)CC(O)(CC(=O)O)C(=O)O [citric acid] + O
Conditions | osmotic coefficient
m1 = 0.2947 | 1.058
m1 = 0.3878 | 1.058
m1 = 0.6515 | 1.058
m1 = 0.8686 | 1.067
m1 = 1.039 | 1.073
m1 = 1.225 | 1.082
m1 = 1.753 | 1.12
m1 = 2.327 | 1.17
m1 = 2.699 | 1.194
m1 = 3.133 | 1.23
m1 = 3.816 | 1.288
m1 = 4.436 | 1.34
m1 = 5.134 | 1.4
m1 = 5.522 | 1.44
m1 = 5.987 | 1.47
m1 = 6.701 | 1.52
m1 = 7.6 | 1.58
m1 = 8.205 | 1.62

O=CO [formic acid] + O
Conditions | osmotic coefficient
m1 = 0.3334 | 1.047
m1 = 0.6596 | 1.078
m1 = 0.7817 | 1.089
m1 = 0.9947 | 1.109
m1 = 1.248 | 1.133
m1 = 1.439 | 1.151
m1 = 1.688 | 1.173
m1 = 2.27 | 1.226
m1 = 2.667 | 1.26
m1 = 2.913 | 1.28
m1 = 3.395 | 1.322
m1 = 3.782 | 1.35
m1 = 4.446 | 1.41
m1 = 4.836 | 1.44
m1 = 5.352 | 1.48
m1 = 5.619 | 1.49

O=C(O)CC(O)C(=O)O (centres undefined) [hydroxybutanedioic acid] + O
Conditions | osmotic coefficient
m1 = 0.1223 | 1.343
m1 = 0.2625 | 0.828
m1 = 0.3917 | 0.426
m1 = 0.5398 | 0.351
m1 = 0.8231 | 0.441
m1 = 0.9977 | 0.506
m1 = 1.245 | 0.528
m1 = 1.848 | 0.531
m1 = 2.634 | 0.54
m1 = 3.207 | 0.554
m1 = 3.996 | 0.566
m1 = 5.166 | 0.584
m1 = 6.325 | 0.613
m1 = 7.352 | 0.626

O=C(O)CC(=O)O [propanedioic acid] + O
Conditions | osmotic coefficient
m1 = 0.1216 | 1.144
m1 = 0.3009 | 0.456
m1 = 0.5079 | 0.268
m1 = 0.6604 | 0.274
m1 = 0.7994 | 0.314
m1 = 1.01 | 0.354
m1 = 1.08 | 0.362
m1 = 1.631 | 0.373
m1 = 2.392 | 0.401
m1 = 3.127 | 0.436
m1 = 4.097 | 0.455
m1 = 5.12 | 0.469
m1 = 6.369 | 0.498
m1 = 9.545 | 0.525

CCC(=O)O [propanoic acid] + O
Conditions | osmotic coefficient
m1 = 0.3425 | 1.054
m1 = 0.4819 | 1.036
m1 = 0.6261 | 1.018
m1 = 0.8086 | 0.9963
m1 = 1.054 | 0.9683
m1 = 1.294 | 0.942
m1 = 1.796 | 0.892
m1 = 2.261 | 0.851
m1 = 2.918 | 0.7984
m1 = 4.125 | 0.718
m1 = 5.45 | 0.647
m1 = 7.948 | 0.549
m1 = 8.132 | 0.542
m1 = 10.51 | 0.478
m1 = 12.4 | 0.438
